# Data published in patent publication US20050171005A1, “Methods and compositions for modulating beta-catenin phosphorylation” (priority 2002, published 2005).
# Where a SMILES comes first, the peptide text is derived from it. The star is where a group is joined. Cbz = O=C(OCc1ccccc1)*
# What was measured:
# β-catenin [1] = assay: Wnt3A conditioned medium stimulation of L, SNU449, HeLa and Jurkat cells, β-catenin level and phosphorylation by Western blot; assay type: cell-based
# Protocol: FIG. 6a: Wnt3A inhibits S45 phosphorylation. Mouse L cells, SNU449 hepatoma cells [Satoh et al. (2000) Nat Genet 24(3):245-50], HeLa cells and β-catenin transfected Jurkat T cells were incubated (5 hr) with conditioned medium of wt or Wnt3A secreting L cells [Shibamoto et al. (1998) Genes Cells 3: 659-670]. MG-132 or okadaic acid (OKA, 1 μM) were added to the indicated cultures. Endogenous (HeLa, L cells and SNU449) and exogenous (Jurkat) β-catenin was detected with anti-β-catenin antibody, or anti-phospho-β-catenin antibodies. The numbers under the different lanes are relative densitometry figures, referring to the signal intensity of untreated cultures.
# The control of β-catenin stability is a major task of the Wnt pathway and is mediated through members of the conserved protein family dishevelled (Dvl 1,2,3) [Boutros and Mlodzik (1999) id ibid.]. […] To this end, several cell lines were first stimulated with Wnt3A [Roelink, H. and R. Nusse. (1991) Genes Dev 5: 381-388; Shibamoto, S. et al. (1998) id ibid.; Lee et al. (1999) id ibid.], and S45 phosphorylation was monitored by Western blot analysis. Wnt stimulation stabilized endogenous β-catenin in mouse L-cells (fibroblasts) (FIG. 6a, lanes 1,2) and exogenous β-catenin in Jurkat lymphocytes (lanes 5,6). […] (lanes 9-11). S45 phosphorylation of β-catenin was evident in proteasome-inhibited L cells (lane 3), Jurkat cells (lane 7) and HeLa cells (lane 14). It was also apparent in okadaic acid-treated SNU449 cells (OKA, lane 10).
# β-catenin [2] = assay type: cell-based, human; settings: 293 cells; CKI-7 100 μM for 16 hr; H89 data not shown
# Protocol: (§1) 293T cells were transiently transfected using the calcium phosphate procedure. The following expression vectors were used: Myc- or Flag-tagged β-catenin (0.5 μg) (a human β-catenin clone obtained from R. Grosschedl), Flag- or Myc-tagged axin (2 μg) (mouse cDNA provided by F. Costantini), HA-GSK3β or Flag-GSK3β (3.5 μg) (a rabbit clone obtained from J R Woodgett) [Woodgett, J. R. (1990) EMBO J 9: 2431-2438]. β-catenin mutants include DP, (S33, S37, T40, S45, S47 substituted to alanine) single point mutants (S29F, S33Y, S37A, T41A, S45F) and 45PKA (T41S, T42R, A43R). Additional vectors: Flag-WD, a dominant negative β-TrCP fragment (ΔF-box) [Yaron, A. et al. (1998) Nature 396: 590-594]; Flag-Dvl-1 (a mouse cDNA clone obtained from S-I Yanagawa) [Lee, J. S. et al. (1999) J Biol Chem 274: 21464-21470]; WT and dominant negative Xenopus CKIε (XCKIε-D128N) (provided by T. Shcwarz-Romond) [McKay, R. M. et al. (2001) Dev Biol 235: 378-387]. 24-48 hr after transfection, cells were harvested and processed for the various experiments. MG-132 (Sigma) was used at 20 μM for 5 hr; LiCl (40 mM) was added for 6 hr, and CKI-7 (100 μM) for 16 hr prior to harvesting. β-catenin, axin or GSK-30 in cell lysates were detected using anti-Myc (Ab-1, Oncogenes Research Products, 2 μg/ml), anti-Flag (M2, Sigma, 1 μg/ml) and anti-HA (12CA5 ascites fluid; 1:5000) antibodies, respectively. GFP expression was monitored with anti-GFP antibody (JL-8, Clontech, 1 μg/ml). In some experiments (FIG. 4) GSK-3β was detected using anti-GSK-3β monoclonal antibodies (clone 7, Transduction Laboratories, 0.1 μg/ml). Endogenous and exogenous β-catenin (FIGS. 5d and 6a) were detected with anti-β-catenin antibodies (clone 14, Transduction Laboratories) (0.25 μg/ml).
# Western blot and mass spectrometry (MS). Three different commercial anti-β-catenin phospho-peptide antibodies were used: i) Anti-phospho-Thr41/Ser 45 (Cell Signaling Technology), a polyclonal antibody specific for both pT41 and pS45 (otp41,45). ii) Anti-phospho-Ser33/37/Thr41 (Cell Signaling Technology), a polyclonal antibody recognizing pS33 (αp33). These two polyclonal antibodies were used at a 1:1000 dilution, according to the manufacturer's instructions. iii) anti-phospho-Ser 33/37 (BC-22, Sigma), a monoclonal antibody specific for pS37 (used as ascites fluid at a 1:3000 dilution; αp37). Antibody specificities were determined by phosphopeptide inhibition studies. D^32S(PO4)GIHSGATTTAPS^45 abolished the αp33, but not the αp37 signal; D^32SGIHS(PO4)GATTTAPS^45 blocked the αp37 but not the αp33 signal. […] Proteins for MS analysis were immunopurified by M2 Flag-affinity beads (Sigma), separated by SDS-PAGE, Coomassie stained and the β-catenin bands were in-gel digested with endoproteinase Asp-N. The resulting peptides were desalted on small columns, eluted with 20% MeOH, 5% HCOOH, and analyzed by nanoelectrospray mass spectrometry [Yaron et al. (1998) id ibid.], using a quadrupole time-of-flight mass spectrometer (PE-Sciex, Canada).
# GSK-3β is traditionally known to target the phosphorylation of +4P-primed substrates [Frame, S. et al. (2001) Mol Cell 7: 1321-1327], a specificity supported by recent structural studies of the enzyme [Dajani, R. et al (2001) Cell 105: 721-732]. The fact that the S45 phosphorylation site is not preceded by a +4P priming site led to the proposition that the molecular complex of axin and GSK-3β is capable of bypassing the priming requirement of the uncomplexed enzyme [Cohen and Frame (2001) id ibid.]. To assess the contribution of GSK-30 in axin-mediated S45 phosphorylation, two types of experiments were carried out. In the first set, 293 cells were incubated prior to harvesting with LiCl, a GSK-3β inhibitor capable of mimicking a Wnt effect [Klein, P. S. and D. A. Melton (1996) Proc Natl Acad Sci USA 93: 8455-8459; Stambolic, V. et al. (1996) Curr Biol 6: 1664-1668].
# endogenous β-catenin = assay: Phosphorylation of endogenous β-catenin in proteasome-inhibited HeLa cells with kinase inhibitors; assay type: cell-based; settings: H89 5 μM
# Protocol: FIG. 5d: Effects of specific kinase inhibitors on the phosphorylation of endogenous β-catenin at S41,45 and S33 in HeLa cells. CKI-7 was used at 100 μM, H89 at 5 μM and LiCl at 40 mM. β-catenin was detected with anti-β-catenin antibody, or anti-phospho-p-catenin antibodies.
# as §1
# Western blot and mass spectrometry (MS). Three different commercial anti-β-catenin phospho-peptide antibodies were used: i) Anti-phospho-Thr41/Ser 45 (Cell Signaling Technology), a polyclonal antibody specific for both pT41 and pS45 (otp41,45). ii) Anti-phospho-Ser33/37/Thr41 (Cell Signaling Technology), a polyclonal antibody recognizing pS33 (αp33). […] Antibody specificities were determined by phosphopeptide inhibition studies. […]
# In another set of experiments the in vivo role of CKI in S45 phosphorylation was analyzed, using two dominant negative CKIε constructs (dnXCKIε K85R and D128N) [McKay et al. (2001) id ibid.] and a specific CKI inhibitor (CKI-7) [Chijiwa, T. et al. (1989) J Biol Chem 264: 4924-4927]. […]
# β-catenin [3] = assay: Okadaic acid treatment of HeLa, SW480 and SNU449 cells, Western blot with anti-phospho β-catenin antibodies; assay type: cell-based
# Protocol: FIG. 7a: HeLa cells were incubated with MG132 with or without okadaic acid (1 μM for 3 hr). Cell lysates were analyzed by Western blotting with αp45 and αp33.
# FIG. 7b: SNU449 cells [Satoh et al. (2000) id ibid.] were treated with okadaic acid (1 μM for 1 or 3 hr), and their lysates tested for S45 phosphorylation by Western blotting,
# FIG. 7c: Okadaic Acid induces β-Catenin phosphorylation and degradation in the APC mutated cell line SW480.
# Okadaic acid is a selective inhibitor of phosphatase PP2A, while it inhibits to a lower extent (10-50 fold less) phosphatase PP1. Proteasome-inhibited HeLa and SW480 cells (treated with 20 μM MG132) or Ser 37-mutated SNU 449 […] cells [Satoh et al. (2000) id ibid.] were treated with okadaic acid (1 μM) for 1 or 3 hr, harvested and their lysate analyzed by Western blot with anti-phospho β-catenin antibodies: anti-pSer45 and anti-pSer33 (for HeLa and RKO cells only). […] Yet, since S45 phosphorylation precedes the S33 phosphorylation, the okadaic effect may be reserved to S45. This is an example of a compound that can upregulate S45 phosphorylation, while Wnt3A downregulates the same phosphorylation event (FIG. 6a).
# phosphatase PP1 = settings: selective inhibitor of phosphatase PP2A; cited from earlier work
# β-catenin [4] = assay: β-catenin degradation in the 293 axin/GSK-3β expression system (Western blot); assay type: cell-based, human; settings: 293 cells, axin and GSK-3β overexpression, Myc-β-catenin; MG-132 20 μM for 5 hr
# Protocol: as §1, with “T42R, A43R). […] MG-132 (Sigma)” for “T42R, A43R). Additional vectors: Flag-WD, a dominant negative β-TrCP fragment (ΔF-box) [Yaron, A. et al. (1998) Nature 396: 590-594]; Flag-Dvl-1 (a mouse cDNA clone obtained from S-I Yanagawa) [Lee, J. S. et al. (1999) J Biol Chem 274: 21464-21470]; WT and dominant negative Xenopus CKIε (XCKIε-D128N) (provided by T. Shcwarz-Romond) [McKay, R. M. et al. (2001) Dev Biol 235: 378-387]. 24-48 hr after transfection, cells were harvested and processed for the various experiments. MG-132 (Sigma)”, “(0.25 μg/ml). […]” for “(0.25 μg/ml).”
molecule,measurement,setting,value
Wnt3A,S33/37 phosphorylation,"β-catenin [1]; Jurkat, HeLa and L cells",inhibition
same,levels of S37 mutated β-catenin,"β-catenin [1]; SNU449 hepatoma cell line, conditioned medium 5 hr",did not affect
same,S45 phosphorylation,"β-catenin [1]; all four cell lines (L, Jurkat, SNU449, HeLa), MG-132 or okadaic acid treated",inhibition
same,β-catenin level (stabilization),"β-catenin [1]; endogenous β-catenin in mouse L-cells, exogenous β-catenin in Jurkat lymphocytes, conditioned medium 5 hr",stabilized
O=S(=O)(NCCNC/C=C/c1ccc(Br)cc1)c1cccc2cnccc12 [H89],constitutive S45 phosphorylation of 45PKA β-catenin,β-catenin [2],inhibited
same,wt β-catenin phosphorylation,endogenous β-catenin,no effect
C=C1[C@@H](O)[C@@H]2O[C@]3(CC[C@H](/C=C/[C@@H](C)[C@@H]4CC(C)=C[C@@]5(O[C@H](C[C@@](C)(O)C(=O)O)CC[C@H]5O)O4)O3)CC[C@H]2O[C@@H]1[C@@H](O)C[C@H](C)[C@H]1O[C@@]2(CCCCO2)CC[C@H]1C [okadaic acid],β-Catenin phosphorylation and degradation,β-catenin [3]; APC mutated cell line SW480,induces
same,phosphorylation signal with anti-pSer45,"β-catenin [3]; MG132-treated HeLa and SW480 cells or SNU 449 cells, okadaic acid 1 μM for 1 or 3 hr",induces a massive phosphorylation signal
same,S45 phosphorylation of β-catenin,"β-catenin [3]; SNU449 cells, okadaic acid 1 μM",apparent
same,phosphorylation signal with anti-pSer33,"β-catenin [3]; okadaic acid 1 μM for 1 or 3 hr, for HeLa and RKO cells only (so in the source)",induces a massive phosphorylation signal
same,inhibition of phosphatase PP1 relative to PP2A,phosphatase PP1,10-50 fold less
CC(C)C[C@@H](C=O)NC(=O)[C@H](CC(C)C)NC(=O)[C@H](CC(C)C)NC(=O)OCc1ccccc1 [MG-132] (Cbz-Leu-Leu-Leu-aldehyde),β-catenin degradation,β-catenin [4],blocked
